Measured values: patent publication US20240287135A1, “ANTIMICROBIAL PEPTIDE OR PEPTIDE DERIVATIVE, SUBSTITUTE, AND COMPOSITION THEREOF, AND PREPARATION METHOD AND APPLICATION OF COMPOSITION” (QC BIO-TECHNOLOGY (SHENZHEN) CO., LTD., priority 2021, published 2024)
Ends that are not written are not given here.

What was measured:
K562 cells = assay: Killing of the AMP for tumor cells (FCM PI kit); assay type: cell-based; details: 10 ng, 20 ng and 40 ng of AMP
Description: K562 cells were cultivated, a same amount of K562 cells was taken and mixed with 10 ng, 20 ng, and 40 ng of the AMP of SEQ ID NO: 8 to allow a reaction, and apoptotic cells were determined by a flow cytometry (FCM) PI kit.

oral bacteria = assay: Inhibition on oral bacteria (mouthwash from the elderly, sheep blood agar); assay type: cell-based; details: 30 min, anaerobic 37 °C 4 d
Description: Mouthwash was taken from the elderly and divided into 4 parts of equal amounts, and the 4 parts each were mixed with a solution of 2 mg/mL SEQ ID NO: 8 at different amounts for 30 min and then evenly coated on plates with sheep blood agar, where A: PBS (control), B: 2 μL, C: 10 μL, and D: 20 μL; and resulting mixtures each were anaerobically cultivated at 37 °C for 4 d, and the number of colonies on each plate was observed.

RNA viruses = assay: Killing of the AMP for RNA viruses (RT-PCR after infection of 293T); assay type: cell-based; details: supernatant mixed with equal amount of 200 μg/mL AMP for 15 min; 293T infected 12 h; control 1.7×10^7
Description: The plasmids pNL4.3Δ, pVSV-G, p-enhancer, and lipo2000 each were used to transfect 293T, then the cells were cultivated at 37° ° C. for two days, a culture supernatant was taken and centrifuged to remove organelle impurities, and 500 μL of a cell supernatant was mixed with an equal amount of 200 μg/mL SEQ ID NO: 8 to allow a reaction for 15 min. In a control group, PBS was used instead of SEQ ID NO: 8. The filter centrifugation (Millipore Amicon Ultra-15) was used to remove the AMP, thereby eliminating a killing effect of the AMP itself on cells. A sample to be tested was used to infect the 293Tcell line, and then the cell line was cultivated at 37° C. for 12 h. The 293T cell line was recovered, and the RT-PCR method was used to determine the infection difference between live viruses for the cells. The control group and the experimental group had the same experimental environment, but the amino acid sequence of SEQ ID NO: 8 of the present application was added in the experimental group.

E. coli = E. coli inhibition test (colony count on agarose plate); assay type: cell-based, Escherichia coli; details: for number of E. coli clones on plate: AMP 200 μg/mL mixed 1:1 with bacterial solution, 15 min room temperature, cultivated 37 °C 12 h, control 251 clones
Description: The 39 AMPs synthesized in Examples 1 to 39 each were subjected to an E. coli inhibition test. 30 μL of an E. coli bacterial solution was taken and mixed with 30 μL of each of the AMPs (concentration: 200 μg/mL), and 30 μL of a PBS isotonic solution was adopted to prepare a control; a reaction was allowed at room temperature for 15 min, and a resulting bacterial solution was evenly coated on an agarose plate and cultivated at 37 °C for 12 h; and the number of E. coli bacteria on each plate was counted and recorded.
In order to make the experimental results clearer, 6 experimental samples were taken for control analysis.

[1] = system: Jurkat cell line (leukemia lymphocytes); assay: Killing of the AMP for leukemia lymphocytes; assay type: cell-based; details: 20 μL of 1 μg/mL AMP, 10^5 cells, 10 min
Description: Jurkat cell line (leukemia lymphocytes) was taken. 20 μL of a solution of 1 μg/mL AMP of SEQ ID NO: 10 was mixed with 10^5 cells to allow a reaction for 10 min, and a resulting mixture was centrifuged at 1,000 rpm for 3 min.

Human RBCs = assay type: cell-based; details: 20 μL of 1 μg/mL AMP, 2% RBCs, 10 min
Description: Human RBCs were taken. 20 μL of a solution of 1 μg/mL AMP of SEQ ID NO: 27 was mixed with 2% RBCs to allow a reaction for 10 min, and a resulting mixture was centrifuged at 1,000 rpm for 3 min.

[2] = system: HypG2 cell line (liver cancer cells); assay: Killing of the AMP for liver cancer cells; assay type: cell-based; details: 20 μL of 1 μg/mL AMP, 10^5 cells, 10 min
Description: HypG2 cell line (liver cancer cells) was taken. 20 μL of a solution of 1 μg/mL AMP of SEQ ID NO: 15 was mixed with 10^5 cells to allow a reaction for 10 min, and a resulting mixture was centrifuged at 1,000 rpm for 3 min.

[3] = system: K562 cell line (leukemia cells); assay: Killing of the AMP for leukemia cells; assay type: cell-based; details: 20 μL of 1 μg/mL AMP, 10^5 cells, 10 min
Description: K562 cell line (leukemia cells) was taken. 20 μL of a solution of 1 μg/mL AMP of SEQ ID NO: 17 was mixed with 10^5 cells to allow a reaction for 10 min, and a resulting mixture was centrifuged at 1,000 rpm for 3 min.

Sequence: HAMGNMLKIMASAVLVRH [SEQ ID NO: 8, HAMGNMLKIMASAVLVRH]
- cell death (apoptotic cells, FCM PI) (K562 cells): cell death was proportional to the content of the AMP
- growth of oral bacteria on plate (oral bacteria; B: 2 μL of 2 mg/mL solution): a small number of bacteria grew
- growth of oral bacteria on plate (oral bacteria; C: 10 μL of 2 mg/mL solution): no oral bacteria grew
- growth of oral bacteria on plate (oral bacteria; D: 20 μL of 2 mg/mL solution): no oral bacteria grew
- active viral copy (RNA viruses): 5×10^5
- number of E. coli clones on plate (E. coli): 1 E. coli clones
- inhibitory effect on E. coli (E. coli; AMP 200 μg/mL, 15 min, plate count (FIG. 1)): most significant inhibitory effect

Sequence: HAMPNMLRIMASAVLVKR (antimicrobial peptide, fully synthetic) [SEQ ID NO: 7]
- number of E. coli clones on plate (E. coli): 216 E. coli clones

Sequence: HKAVGNMLKIASAVLVHK (antimicrobial peptide, fully synthetic) [SEQ ID NO: 6]
- number of E. coli clones on plate (E. coli): 226 E. coli clones

Sequence: HKAVPNMLHIASAVLVRH (antimicrobial peptide, fully synthetic) [SEQ ID NO: 5]
- number of E. coli clones on plate (E. coli): 236 E. coli clones

Sequence: HKRAMPSIVKMIATLVLARKH (antimicrobial peptide, fully synthetic) [SEQ ID NO: 10]
- effect on leukemia lymphocytes (image) [1]: leukemia lymphocytes clump, and some are broken

Sequence: KAVPNMLKIMASLVLARH [SEQ ID NO: 27, KAVPNMLKIMASLVLARH]
- clumping of RBCs (Human RBCs): human RBCs clump
- hemolysis (Human RBCs): no obvious hemolysis

Sequence: RAMPNMLRIMASLVLARKH [SEQ ID NO: 15]
- effect on liver cancer cells (image) [2]: Liver cancer cells clump, and are broken and deformed

Sequence: RHAMGQMLRIMASLVLARK [SEQ ID NO: 17]
- effect on leukemia cells (image) [3]: leukemia cells clump
